These results are taken from ChEMBL document CHEMBL1221377, “SAR development of a series of 8-azabicyclo[3.2.1]octan-3-yloxy-benzamides as kappa opioid receptor antagonists. Part 2” (Bioorg Med Chem Lett, 2010).

Some results are limits rather than exact numbers.

Series [1] is described as follows: Intrinsic clearance in human liver microsomes. It counts as ADME, Microsome. For orientation: Liver microsomes are a subcellular fraction often used to study metabolism.
A short description of series [2]: Apparent permeability from apical to basolateral side of MDCK cells expressing MDR1. In kind it is ADME, cell-based, Canis lupus familiaris. The following applies: dog.
The nature of series [3]: Ratio of drug level brain to plasma in Sprague-Dawley rat at 5 umol/kg, iv. It counts as ADME. As to conditions: brain and plasma, read-out: BPR.
The nature of series [4]: Intrinsic clearance in rat liver microsomes. It counts as ADME, Microsome.
Series [5] can be described thus: Half life in Sprague-Dawley rat at 2 umol/kg, iv. It counts as ADME, organism-based. The following applies: in vivo.
For series [6], the system named is Rattus norvegicus. The series is described as follows: Clearance in Sprague-Dawley rat plasma at 2 umol/kg, iv. In kind it is ADME, organism-based. As to conditions: in vivo.
Series [7] in a line: Oral bioavailability in Sprague-Dawley rat at 2 umol/kg. In kind it is ADME, organism-based. As to conditions: in vivo.
Series [8] in a line: Volume of distribution at steady state in Sprague-Dawley rat at 2 umol/kg, iv. It counts as ADME, organism-based. As to conditions: in vivo, read-out: Vdss.
The nature of series [9]: Ratio of drug level brain to plasma in Sprague-Dawley rat at 2 umol/kg, iv. The following applies: brain and plasma, read-out: BPR. In kind it is ADME.

What is called microsomal CLint is the rate of metabolic loss divided by the concentration. As a reminder, the Papp A→B is how fast a substance crosses the layer from the apical side. For the molecule `CN(C)C(=O)N[C@H]1CC[C@@H](CCN2[C@@H]3CC[C@H]2C[C@@H](Oc2cccc(C(N)=O)c2)C3)CC1`, the microsomal CLint was less than 4 µL/min/mg in series [1] and 30 µL/min/mg in series [4]. The Papp A→B in series [2] was 1.9 ×10⁻⁶ cm/s. For the same molecule, in [3], the Kp worked out at 0.22.
As usually defined, the half-life is the time in which the quantity being followed falls by half. A higher half-life goes with slow decline. By bioavailability is commonly meant the share of a dose that reaches the circulation, judged against a reference dose that is usually intravenous. A lower bioavailability goes with poor availability. With `NC(=O)c1cccc(C[C@H]2C[C@H]3CC[C@@H](C2)N3Cc2ccccc2)c1`, the microsomal CLint in [1] is less than 4 µL/min/mg; in [4] it was 65 µL/min/mg. In addition, the half-life in series [5] was 1.3 h. The apparent permeability from apical to basolateral (Papp A→B) in [2] is 14 ×10⁻⁶ cm/s. In [6], this molecule displayed a CL of 124 µL/min/mg. In addition, the bioavailability in [7] is 5%. For the same molecule, in series [8], the Vd worked out at 6.6 L/kg. For the same molecule, the Kp in [9] came to 1.9.
